Measured values as given in patent publication US5270302A, “Derivatives of tetrapeptides as CCK agonists” (priority 1991, dated 1993).
Like-named read-outs stand apart in the source and are kept apart here. *1 amine or outer side, *2 acyl side, *3 side chain or, on linkers, in order; H or OH if unused. Where a SMILES comes first, the peptide text is derived from it. Side-chain parts run from the residue outwards. [ ]: non-standard residue; d: D form. The star is where a group is joined. ξ: configuration not given here. ξαMeW = CC(N)(Cc1c[nH]c2ccccc12)C(=O)O; NMeF = CN[C@@H](Cc1ccccc1)C(=O)O; NMeD = CN[C@@H](CC(=O)O)C(=O)O; NH(2-Me-phenyl) = Cc1ccccc1N*; Boc = CC(C)(C)OC(=O)*; CO = O=C([*:1])[*:2]

What was measured:
Type-B CCK receptor = biological target: T1, Type-B CCK receptor (Cavia porcellus, UniProt H0VZC5); test: Radioligand binding of [125I]BH-CCK-8 in guinea pig cerebral cortical membrane preparations
T1 construct: Cortical and pancreatic membranes were prepared as described; from tissue; host or cells: guinea pig cerebral cortex membranes
T1 sequence (H0VZC5 1-426): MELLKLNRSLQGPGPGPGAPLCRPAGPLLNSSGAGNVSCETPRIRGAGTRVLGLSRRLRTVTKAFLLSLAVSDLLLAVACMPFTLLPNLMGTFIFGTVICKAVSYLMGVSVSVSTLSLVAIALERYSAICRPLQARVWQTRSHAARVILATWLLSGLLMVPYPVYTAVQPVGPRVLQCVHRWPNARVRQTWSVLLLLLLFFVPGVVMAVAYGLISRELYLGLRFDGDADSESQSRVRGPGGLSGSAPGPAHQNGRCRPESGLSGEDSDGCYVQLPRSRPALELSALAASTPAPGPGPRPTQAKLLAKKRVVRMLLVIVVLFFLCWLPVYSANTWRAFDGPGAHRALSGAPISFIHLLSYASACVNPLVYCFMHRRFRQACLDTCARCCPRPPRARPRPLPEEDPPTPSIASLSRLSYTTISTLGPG
In short: (§1)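 Membranes came from male guinea pig pancreas (type A) or cerebral cortex (type B) and were resuspended in pH 7.4 HEPES-EGTA-salt buffer containing bestatin and phosphoramidon. Test compounds competed with [125I]BH-CCK-8 in 0.1% BSA: cortex 150 min at 30 °C, pancreas 150 min at 37 °C. Reactions ended by filtration; IC50 from Hill analysis.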

rats [1] = test: Feeding effects of acute administration of CCK agonists in rats (liquid diet); type: in vivo; details: i.p., acute (1 day)
Text: Feeding Effects of Acute Administration of CCK Agonists in Rats
The experimental paradigm used in the above-mentioned chronic feeding studies was employed to establish dose reponses for CCK agonists of this invention on an acute (1 day) basis. Following an 8-day diet acclimation period, the rats were weighed and injected with vehicle. CCK-8 or test compound (see Table 7) at doses ranging from 1-1000 nmol/kg (i.p.). Six to ten minutes later, the rats were presented with the diet and intakes were recorded. No injections were administered prior to the P.M. feeding. Mean A.M. intakes as a percent of control were plotted versus log dose (nm/kg) to establish the dose response curve.

Type-A CCK receptor = biological target: T2, Type-A CCK receptor (Cavia porcellus, UniProt Q63931); test: Radioligand binding of [125I]BH-CCK-8 in guinea pig pancreatic membrane preparations
T2 construct: Cortical and pancreatic membranes were prepared as described; from tissue; host or cells: guinea pig pancreas membranes
T2 sequence (Q63931 1-430): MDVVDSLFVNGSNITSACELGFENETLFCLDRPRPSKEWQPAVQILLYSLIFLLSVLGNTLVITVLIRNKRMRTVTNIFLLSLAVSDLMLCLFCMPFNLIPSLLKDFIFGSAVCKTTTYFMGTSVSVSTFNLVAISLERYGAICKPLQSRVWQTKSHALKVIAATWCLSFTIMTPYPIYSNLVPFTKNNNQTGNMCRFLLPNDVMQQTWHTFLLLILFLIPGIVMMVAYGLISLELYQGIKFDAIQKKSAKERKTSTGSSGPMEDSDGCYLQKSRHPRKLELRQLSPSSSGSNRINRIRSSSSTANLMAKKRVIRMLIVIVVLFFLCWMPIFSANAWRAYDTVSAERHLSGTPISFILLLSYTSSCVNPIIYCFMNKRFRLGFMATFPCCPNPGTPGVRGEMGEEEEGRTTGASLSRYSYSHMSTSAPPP
In short: as §1

rats [2] = test: Feeding effects of chronic administration of CCK-8 and CCK agonists in rat (liquid diet); type: in vivo; details: ip, 10 nmol/kg, 11 days of testing
Experimental: Feeding Effects of Chronic Administration of CCK-8 and CCK Agonists in Rat
Adult male Sprague-Dawley rats, weighing approximately 250 g, were placed on a restricted diet. Rats were weighed every morning and were allowed access to a liquid diet (Ensure®) for 60 minutes in the morning and 45 minutes in the late afternoon; intakes were recorded every 15 minutes. […] Six to 10 minutes later, the rats were presented with the diet, and intakes were recorded as usual. No injections were administered prior to the PM feeding. After 11 days of testing, half of the animals were sacrificed while the remaining rats were withdrawn from treatment and injected with vehicle for 4 days.

mice [3] = test: Measurement of plasma insulin in mice following treatment with CCK-8 or a CCK agonist; type: in vivo; details: tail vein injection, 2 minutes
Experimental: Measurement of Plasma Insulin in Mice Following Treatment With CCK-8 or a CCK Agonist
Male mice, weighing from about 20 to about 30 g each, were used in all experiments. The animals were fed with laboratory lab chow and water ad libitum. CCK-8 or one the CCK agonist compounds of this invention was injected into the tail vein. Two minutes later, the animals were sacrificed and the blood was collected in 1.5 mL heparinized polypropylene tubes. The tubes were centrifuged at 10,000×g for 2 minutes. The insulin levels were determined in the supernatant, i.e., plasma, by radioimmuno assay (RIA) using kits obtained from Radioassay Systems Laboratory (Carson, CA.) or Novo Biolabs (Danbury, Conn.). The results of this assay are shown in Table 3 and are expressed as the percent increase in insulin secretion over insulin secretion observed in mice injected with a saline solution. Each dose was tested in at least six mice and the values presented are averages for the group of mice tested at each dose.

rats [4] = test: Feeding effect of CCK agonists in food-deprived rats; type: in vivo; details: i.p., dose 20 μg/kg, one hour feeding, vehicle 9.40 grams
Experimental: Feeding Effect of CCK Agonists in Rats
Forty male, Sprague-Dawley rats were subjected to a 23 hour food deprivation schedule for four days. On the fifth day, the animals were divided into five equal groups based on their previous (4th day) food intake. […] The amount of food consumed was measured after subtraction of spillage.

guinea pig gallbladder = details: read-out: EC50 for contraction; isolated guinea pig gallbladder, 37° C.; 50% of the compound's own maximal contraction
Experimental: Guinea Pig Gallbladder Contraction
Gallbladders were obtained from male guinea pigs (250-300 gm). The bile was emptied by a small incision and the gallbladder was suspended in an organ bath. The tissue was maintained at 37° C., suspended in Krebs-Ringer buffer (mM: NaCl, 118; KCl, 4.7; CaCl2, 2.5; MgCl2, 1.2; NaH2 PO4, 1.2; NaHCO3, 25; choline chloride, 30 mM; glucose, 11) and bubbled with 95% O2 -5% CO2. Isometric contractions were recorded with a Grass polygraph. Baseline tension was set at 0.3 grams. After equilibration for approximately 30 minutes, CCK-8 (20 nM) was introduced and tensions were recorded. After reaching maximal contractions (about 5 minutes), the drug was washed out by overflow. The CCK-8 addition was repeated twice to ensure constant force of contraction.

mice [5] = test: Behavioral effect of CCK agonists in mice (suppression of locomotor activity); type: in vivo
Text: Behavioral Effect of CCK Agonists in Mice
The animals were placed on a slightly elevated metal grid and restrained by the thumb and forefinger at the level of the shoulders, thus immobilizing their heads. Injections were made with a 30 gauge needle with a "stop" consisting of a piece of tygon tubing to limit penetration of the needle to about 4.5 mm below the surface of the skin. The needle was inserted perpendicular to the skull at a midline point equidistant from each eye and an equal distance posterior from the level of the eyes such that the injection site and the two eyes form an equilateral triangle. The injection volume (5 ul) was expelled smoothly over a period of approximately 1 second.
Immediately after the injections the mice were placed in their cages and allowed a 15 minute recovery period prior to the beginning of behavioral observations.
For the behavioral observations, the mice were placed in clear plastic cages. Each cage measured 19×26×15 cm and contained a 60-tube polypropylene test tube rack place on end in the center of the cage to enhance exploratory activity. Observations were made every 30 seconds for a period of 30 minutes. […] Differences among groups were analyzed by Newman-Kewels analysis and a probability level of p<0.05 was accepted as significant.

guinea pig acini = biological target: T3, guinea pig acini (Cavia porcellus, UniProt Q63931); test: Amylase release assay in guinea pig pancreatic acini; type: cell-based; details: 30 minutes at 37° C., reference CCK-8 3×10^-10 M
T3 sequence (Q63931 1-430): T2 sequence (Q63931 1-430)
Experimental: Protocol for Amylase Release Assay
Guinea Pig Acini Preparation
Pancreas was dissected out and connective tissues and blood vessels were removed. The pancreas was cut into small pieces (2 mm) by a scissor and placed in a 15 mL conical plastic tube containing 2.5 mL of Krebs-Ringer HEPES (KRH) buffer plus 400 units per mL of collagenase. […] The buffer was supplemented with 1% MEM vitamins, 1% MEM amino acids and 0.001% aprotinin (pancreatic basic trypsin inhibitor). […] The supernatant was discarded and 6 mL of the KRH was added to the cell pellet. […] This wash procedure was repeated once. The cell pellet from the last centrifugation step was then resuspended in 15 mL of KRH containing 0.1% BSA. […] The filtrate, containing the acini, was centrifuged at 50×g for 3 minutes. The acini were then resuspended in 5 mL of KRH-BSA buffer for 30 minutes at 37° C. under 100% O2, with a change of fresh buffer at 15 minutes.
After the 30 minutes incubation time, the acini was resuspended in 100 volumes of KRH-BSA buffer, containing 3 μM phosphoramidon and 100 μM bestatin. […] Amylase activity in the supernatant and the cell pellet were separately determined after appropriate dilutions in 0.1% Triton X-100® (a non-ionic detergent available from Sigma Chemical Co.), 20 mM NaH2 PO4, pH 7.4, by Abbott Amylase A-gent® test using the Abbott Bichromatic Analyzer 200.

[6] = guinea pig cortical membranes, 30° C., 150 minutes, read-out: IC50 (nM) 125I-BH-CCK-8 Type-B receptor
[7] = guinea pig pancreatic membranes, 37° C., 150 min, read-out: IC50 (nM) 125I-BH-CCK-8 Type-A receptor

Molecule: Cc1ccccc1NC(=O)NCCCC[C@H](NC(=O)[C@H](Cc1c[nH]c2ccccc12)NC(=O)OC(C)(C)C)C(=O)N(C)[C@@H](CC(=O)O)C(=O)N(C)[C@@H](Cc1ccccc1)C(N)=O [Example 61, t-BOC-Trp-Lys(ε-N-(2-methylphenyl)aminocarbonyl)(NMe)Asp-(NMe)PheNH2] (Boc-WK([CO-NH(2-Me-phenyl)])[NMeD][NMeF]-NH2)
- IC50 (Type-B CCK receptor): 10000 nM
- ED25, suppression of feeding (liquid diet) (rats [1]): 0.6 nmol/kg
- ED50, dose required to decrease mean A.M. food intake by 50% (rats [1]): 2.6 nmol/kg
- IC50 (Type-A CCK receptor): 4.8 nM

Molecule: CSCC[C@H](NC(=O)[C@H](Cc1ccc(OS(=O)(=O)O)cc1)NC(=O)[C@@H](N)CC(=O)O)C(=O)NCC(=O)N[C@@H](Cc1c[nH]c2ccccc12)C(=O)N[C@@H](CCSC)C(=O)N[C@@H](CC(=O)O)C(=O)N[C@@H](Cc1ccccc1)C(N)=O [CCK-8, Asp-Tyr(SO3 H)-Met-Gly-Trp-Met-Asp-PheNH2]
- AM liquid food intake versus controls (rats [2]): significantly reduced intakes on just the first and last treatment days
- body weight gain versus controls (rats [2]): no significant effects on body weight gain
- % Increase In Insulin Secretion Versus Saline Control (mice [3]; dose 3 nmole/kg): 65%
- % Increase In Insulin Secretion Versus Saline Control (mice [3]; dose 10 nmole/kg): 85%
- % Increase In Insulin Secretion Versus Saline Control (mice [3]; dose 30 nmole/kg): 90%
- % Increase In Insulin Secretion Versus Saline Control (mice [3]; dose 100 nmole/kg): 70%
- Mean Food Intake (rats [4]): 6.56 grams
- EC50 (guinea pig gallbladder): 5.9 nM
- Minimal Effective Dose, suppression of locomotor activity (mice [5]; ICV administration): 3.0 nmol/mouse
- Minimal Effective Dose, suppression of locomotor activity (mice [5]; IP administration): 0.001 µmol/kg

Molecule: CCOC(=O)C(C)(Cc1c[nH]c2ccccc12)C(=O)N[C@@H](CCCCNC(=O)Nc1ccccc1C)C(=O)N[C@@H](CC(=O)O)C(=O)N(C)[C@@H](Cc1ccccc1)C(N)=O (stereo partly shown) [Example 107, (2-Carboethoxy-2-methyl-3-(3-indolyl)propionyl)-Lys(ε-N-(2-methylphenyl)amino-carbonyl)-Asp-(NMe)PheNH2]
- IC50 (Type-B CCK receptor; [6]): 1400 nM
- ED25, suppression of feeding (liquid diet) (rats [1]): 3.7 nmol/kg
- ED50, dose required to decrease mean A.M. food intake by 50% (rats [1]): 26.1 nmol/kg
- IC50 (Type-A CCK receptor; [7]): 21 nM

Molecule: Cc1ccccc1NC(=O)NCCCC[C@H](NC(=O)C(C)(N)Cc1c[nH]c2ccccc12)C(=O)N[C@@H](CC(=O)O)C(=O)N[C@@H](Cc1ccccc1)C(N)=O (stereo partly drawn) [Example 97, D,L-(α-Methyl)Trp-Lys(ε-N-(2-methylphenyl)aminocarbonyl)-Asp-PheNH2] (H-[ξαMeW]K([CO-NH(2-Me-phenyl)])DF-NH2)
- IC50 (Type-B CCK receptor; IC50 (nM) 125I-BH-CCK-8 Type-B receptor, guinea pig cortical membranes, 30° C., 150 minutes): 2600 nM
- ED25, suppression of feeding (liquid diet) (rats [1]): 1.8 nmol/kg
- ED50, dose required to decrease mean A.M. food intake by 50% (rats [1]): 9.4 nmol/kg
- IC50 (Type-A CCK receptor; IC50 (nM) 125I-BH-CCK-8 Type-A receptor, guinea pig pancreatic membranes, 37° C., 150 min): 11 nM

Molecule: t-BOC-Trp-Nle(6-((2-methylphenyl)aminocarbonyl)oxy)-Asp-(NMe)PheNH2 [Example 114]
- EC50 (guinea pig acini): 3 nM

Molecule: Cc1ccccc1NC(=O)NCCCC[C@H](NC(=O)C(Cc1c[nH]c2ccccc12)C(N)=O)C(=O)N[C@@H](CC(=O)O)C(=O)N(C)[C@@H](Cc1ccccc1)C(N)=O (stereo partly shown) [Example 106, (2-Aminocarbonyl-3-(3-indolyl)propionyl)-Lys(ε-N-(2-methylphenyl)aminocarbonyl)-Asp-(NMe)PheNH2]
- IC50 (Type-B CCK receptor; [6]): > 10000 nM
- ED25, suppression of feeding (liquid diet) (rats [1]): 6.9 nmol/kg
- ED50, dose required to decrease mean A.M. food intake by 50% (rats [1]): 58.5 nmol/kg
- IC50 (Type-A CCK receptor; [7]): 13 nM

Molecule: Cc1ccccc1NC(=O)NCCCC[C@H](NC(=O)[C@H](Cc1c[nH]c2ccccc12)NC(=O)OC(C)(C)C)C(=O)N[C@@H](CC(=O)O)C(=O)N(C)[C@@H](Cc1ccccc1)C(N)=O [Example 33, t-BOC-Trp-Lys(ε-N-(2-methylphenyl)aminocarbonyl)-Asp-(NMe)PheNH2] (Boc-WK([CO-NH(2-Me-phenyl)])D[NMeF]-NH2)
- EC50 (guinea pig gallbladder): 10 nM
